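These data come from cells grown in 96-well plates and exposed to compound for 48 hours at five concentrations. TGI: total growth inhibition.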
Tests used:
Assay in all cases: NCI tumour cell line growth inhibition, 48 h
A549 NSCLC = system: A549 NSCLC
ACHN renal = system: ACHN renal
CAKI-1 renal = system: CAKI-1 renal
CCRF-CEM leukemia = system: CCRF-CEM leukemia
COLO 205 colon = system: COLO 205 colon
DMS 114 small cell lung = system: DMS 114 small cell lung
EKVX NSCLC = system: EKVX NSCLC
HCC-2998 colon = system: HCC-2998 colon
HCT-116 colon = system: HCT-116 colon
HL-60(TB) leukemia = system: HL-60(TB) leukemia
HOP-62 NSCLC = system: HOP-62 NSCLC
HOP-92 NSCLC = system: HOP-92 NSCLC
HT29 colon = system: HT29 colon
IGROV1 ovarian = system: IGROV1 ovarian
K-562 leukemia = system: K-562 leukemia
KM12 colon = system: KM12 colon
KM20L2 colon = system: KM20L2 colon
LXFL 529 NSCLC = system: LXFL 529 NSCLC
M14 melanoma = system: M14 melanoma
M19-MEL melanoma = system: M19-MEL melanoma
MOLT-4 leukemia = system: MOLT-4 leukemia
NCI-H226 lung = system: NCI-H226 lung
NCI-H23 lung = system: NCI-H23 lung
NCI-H460 lung = system: NCI-H460 lung
OVCAR-3 ovarian = system: OVCAR-3 ovarian
OVCAR-4 ovarian = system: OVCAR-4 ovarian
OVCAR-8 ovarian = system: OVCAR-8 ovarian
RPMI-8226 leukemia = system: RPMI-8226 leukemia
RXF 393 renal = system: RXF 393 renal
SF-268 CNS = system: SF-268 CNS
SF-295 CNS = system: SF-295 CNS
SF-539 CNS = system: SF-539 CNS
SK-MEL-2 melanoma = system: SK-MEL-2 melanoma
SK-MEL-28 melanoma = system: SK-MEL-28 melanoma
SK-MEL-5 melanoma = system: SK-MEL-5 melanoma
SNB-19 CNS = system: SNB-19 CNS
SNB-75 CNS = system: SNB-75 CNS
SR leukemia = system: SR leukemia
SW-620 colon = system: SW-620 colon
TK-10 renal = system: TK-10 renal
UACC-257 melanoma = system: UACC-257 melanoma
UACC-62 melanoma = system: UACC-62 melanoma
UO-31 renal = system: UO-31 renal

COC(=O)C1=C(C)N2CCSC2(C)C(C(=O)OC)C1c1cccc(Cl)c1 (stereo not drawn)
TGI (A549 NSCLC): 65.3 µM
TGI (ACHN renal): > 100 µM
TGI (CAKI-1 renal): 70 µM
TGI (CCRF-CEM leukemia): 69.5 µM
TGI (COLO 205 colon): 35.4 µM
TGI (DMS 114 small cell lung): 44.6 µM
TGI (EKVX NSCLC): 42.1 µM
TGI (HCC-2998 colon): 40 µM
TGI (HCT-116 colon): 34.9 µM
TGI (HL-60(TB) leukemia): 49.3 µM
TGI (HOP-62 NSCLC): 38.2 µM
TGI (HOP-92 NSCLC): 53.2 µM
TGI (HT29 colon): 33.4 µM
TGI (IGROV1 ovarian): > 100 µM
TGI (K-562 leukemia): > 100 µM
TGI (KM12 colon): 62.3 µM
TGI (KM20L2 colon): 43.4 µM
TGI (LXFL 529 NSCLC): 72.5 µM
TGI (M14 melanoma): 89.3 µM
TGI (M19-MEL melanoma): 31.9 µM
TGI (MOLT-4 leukemia): 45.6 µM
TGI (NCI-H226 lung): 47.4 µM
TGI (NCI-H23 lung): 73.8 µM
TGI (NCI-H460 lung): 74.5 µM
TGI (OVCAR-3 ovarian): 34.6 µM
TGI (OVCAR-4 ovarian): > 100 µM
TGI (OVCAR-8 ovarian): > 100 µM
TGI (RPMI-8226 leukemia): 81.7 µM
TGI (RXF 393 renal): 53.5 µM
TGI (SF-268 CNS): 43.7 µM
TGI (SF-295 CNS): 34 µM
TGI (SF-539 CNS): 24.9 µM
TGI (SK-MEL-2 melanoma): 34.2 µM
TGI (SK-MEL-28 melanoma): 46.9 µM
TGI (SK-MEL-5 melanoma): 29 µM
TGI (SNB-19 CNS): 73.2 µM
TGI (SNB-75 CNS): 42.9 µM
TGI (SR leukemia): 66.7 µM
TGI (SW-620 colon): > 100 µM
TGI (TK-10 renal): > 100 µM
TGI (UACC-257 melanoma): 21.7 µM
TGI (UACC-62 melanoma): 32.6 µM
TGI (UO-31 renal): 38.3 µM

— PubChem BioAssay (NCI)
